Converted amounts (≈) assume the structure as drawn. Where two headings read alike, the source gives them in different places.
Experiments:
[1] = system: Methicillin Resistant Staphylococcus aureus strain USA 300, NRS384; experiment: Minimum inhibitory concentration, broth micro-dilution (CLSI), S. aureus; format: cell-based; conditions: Staphylococcus aureus, MRSA / NRS 384 / USA300, 22 h, 35° C., 22 hours
Procedure, shortened: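 Colonies grown 20 hours at 35° C were suspended in cation-adjusted Mueller Hinton Broth with 0.002% Tween-80. Cells were then added to 2-fold compound dilutions starting at 4 or 0.5 μg/mL, at OD600 0.0005.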

[2] = system: Escherichia coli MC4100 harboring the IMP4213 (E. coli IMP); experiment: microbe, parasite or virus in culture; format: cell-based; conditions: Escherichia coli, 22 h, read-out: MIC (μg/mL) E. coli IMP, E. coli MC4100 IMP4213, increased outer-membrane permeability; 35° C., 22 hours
Procedure, shortened: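 Ten 2-fold dilutions, from 4 μg/mL or from 0.5 μg/mL depending on protocol, are challenged with bacteria at OD600 0.0005 in Tween-80-supplemented cation-adjusted Mueller Hinton Broth. Plates incubate 22 hours at 35° C per CLSI. The E. coli IMP4213 strain has increased outer-membrane permeability.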

[3] = system: Escherichia coli ATCC 25922; experiment: Minimum inhibitory concentration, broth micro-dilution (CLSI), E. coli; format: cell-based; conditions: Escherichia coli, ATCC25922, 22 h, 35° C., 22 hours
[4] = molecular target: T1, SpsB (Staphylococcus aureus signal peptidase) (Staphylococcus aureus, UniProt P0A070); experiment: cell-based; format: biochemical; conditions: SpsB IC50, whole-cell S. aureus (USA300 background, overexpressing SpsB) as SpsB source; fluorogenic peptide substrate, kinetic read 30 min
T1 construct: This assay uses a suspension of Staphylococcus aureus cells as a source of SpsB instead of recombinant SpsB protein; endogenous in cells; host or cells: S. aureus, USA300 background, overexpressing SpsB (whole-cell suspension from frozen pellets)
T1 sequence (P0A070 whole entry): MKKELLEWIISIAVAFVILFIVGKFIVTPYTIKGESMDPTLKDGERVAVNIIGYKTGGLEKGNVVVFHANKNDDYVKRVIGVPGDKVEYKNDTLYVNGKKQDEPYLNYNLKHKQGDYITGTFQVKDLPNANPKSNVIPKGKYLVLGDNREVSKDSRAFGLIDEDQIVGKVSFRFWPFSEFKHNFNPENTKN
Procedure, shortened: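 Cleavage of an internally quenched (Dabcyl)βAla-KPAKAAE(Edans) peptide, added as 20 μM solution mixed 1:1 with cells, was followed for 30 min at 340/490 nm. SpsB came from a suspension of SpsB-overexpressing USA300 S. aureus in Tween-80-containing PBS buffer. Slopes plotted against 3-fold compound dilutions gave IC50.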

[5] = read-out: MIC (μg/mL) S. aureus, MRSA USA 300 NRS384
[6] = read-out: MIC (μg/mL) E. coli, E. coli ATCC 25922
[7] = MRSA USA 300 NRS384, read-out: MIC (μg/mL) S. aureus
[8] = E. coli ATCC 25922, read-out: MIC (μg/mL) E. coli

SMILES | MIC [1, 5] | MIC [2] | MIC [3, 6] | IC50 [4] | MIC [1, 7] | MIC [3, 8]
CCCCc1ccc(-c2ccc(C(=O)N[C@@H](CN)C(=O)N(C)[C@@H]3C(=O)N[C@@H](C)C(=O)N[C@H](C(=O)NCC#N)Cc4ccc(OCCO)c(c4)-c4cc3ccc4OCCN)cc2)cc1 [Compound 321] | 0.38 µg/mL (≈ 0.441 µM) | 0.016 µg/mL (≈ 0.0186 µM) | 1 µg/mL (≈ 1.16 µM) | 1.8 nM | – | –
CCCCc1ccc(-c2ccc(C(=O)N[C@@H](CN)C(=O)N(C)[C@@H]3C(=O)N[C@@H](C)C(=O)N[C@H](C(=O)NCC#N)Cc4ccc(OCCC)c(c4)-c4cc3ccc4OCCN)cc2)cc1 [Compound 322] | – | 0.13 µg/mL (≈ 0.151 µM) | – | 8.4 nM | 1.5 µg/mL (≈ 1.75 µM) | 4 µg/mL (≈ 4.66 µM)
CCCCCCCCCCCCCC(=O)N[C@@H](CCN)C(=O)N(C)[C@@H]1C(=O)N[C@@H](C)C(=O)N[C@H](C(=O)NCC#N)Cc2ccc(OCCC)c(c2)-c2cc1ccc2OCCN [Compound 323] | – | 0.094 µg/mL (≈ 0.111 µM) | – | 2.8 nM | 0.75 µg/mL (≈ 0.885 µM) | 1.5 µg/mL (≈ 1.77 µM)
CCCCCCCCCCCCCC(=O)N[C@@H](CCN)C(=O)N(C)[C@@H]1C(=O)N[C@@H](C)C(=O)N[C@H](C(=O)NCC#N)Cc2ccc(OCC)c(c2)-c2cc1ccc2OCCN [Compound 324] | – | 0.031 µg/mL (≈ 0.0372 µM) | – | 0.82 nM | 0.25 µg/mL (≈ 0.3 µM) | 1 µg/mL (≈ 1.2 µM)
CCCCCCCCCCCCCC(=O)N[C@@H](CCN)C(=O)N(C)[C@@H]1C(=O)N[C@@H](C)C(=O)N[C@H](C(=O)NCC#N)Cc2ccc(OCCO)c(c2)-c2cc1ccc2OCCN [Compound 325] | – | < 0.0039 µg/mL | – | 0.77 nM | 0.13 µg/mL (≈ 0.153 µM) | 0.5 µg/mL (≈ 0.589 µM)
CCCCCCCCCCCCCC(=O)N[C@@H](CCN)C(=O)N(C)[C@@H]1C(=O)N[C@@H](C)C(=O)N[C@H](C(=O)NCC#N)Cc2ccc(OC)c(c2)-c2cc1ccc2OCCN [Compound 326] | – | 0.016 µg/mL (≈ 0.0195 µM) | – | 0.98 nM | 0.19 µg/mL (≈ 0.232 µM) | 1 µg/mL (≈ 1.22 µM)
CCCCCCCCCCCCCC(=O)N[C@@H](CCN)C(=O)N(C)[C@@H]1C(=O)N[C@@H](C)C(=O)N[C@H](C(=O)NCC#N)Cc2ccc(OCCN)c(c2)-c2cc1ccc2OCCO [Compound 329] | – | 0.0078 µg/mL (≈ 0.00919 µM) | – | 0.71 nM | 0.063 µg/mL (≈ 0.0742 µM) | 0.5 µg/mL (≈ 0.589 µM)
CCCCCCCCCCCCCC(=O)N[C@@H](CCN)C(=O)N(C)[C@@H]1C(=O)N[C@@H](C)C(=O)N[C@H](C(=O)NCC#N)Cc2ccc(OCCN)c(c2)-c2cc1ccc2OCC [Compound 330] | – | 0.063 µg/mL (≈ 0.0756 µM) | – | 1 nM | 0.25 µg/mL (≈ 0.3 µM) | 1 µg/mL (≈ 1.2 µM)
CCCCc1ccc(-c2ccc(C(=O)N[C@@H](CCCCN)C(=O)N(C)[C@@H]3C(=O)N[C@@H](C)C(=O)N[C@H](C(=O)NCC#N)Cc4ccc(OCCN)c(c4)-c4cc3ccc4OCCN)cc2)cc1 [Compound 331] | 0.063 µg/mL (≈ 0.0698 µM) | 0.023 µg/mL (≈ 0.0255 µM) | 0.69 µg/mL (≈ 0.765 µM) | 0.34 nM | – | –
CCCCc1ccc(-c2ccc(C(=O)N[C@@H](CCCCN)C(=O)N(C)[C@@H]3C(=O)N[C@@H](C)C(=O)N[C@H](C(=O)N[C@@H](C)C#N)Cc4ccc(OCCN)c(c4)-c4cc3ccc4OCCN)cc2)cc1 [Compound 332] | – | < 0.063 µg/mL | – | 0.56 nM | 0.13 µg/mL (≈ 0.142 µM) | 3 µg/mL (≈ 3.27 µM)
CCCCCCCCCCCCCC(=O)N[C@@H](CCCCN)C(=O)N(C)[C@@H]1C(=O)N[C@@H](C)C(=O)N[C@H](C(=O)N[C@@H](C)C#N)Cc2ccc(OCCN)c(c2)-c2cc1ccc2OCCO [Compound 333] | – | < 0.063 µg/mL | – | 0.8 nM | < 0.063 µg/mL | 1 µg/mL (≈ 1.12 µM)
CCCCCCCCCCCCCC(=O)N[C@@H](CCCCN)C(=O)N(C)[C@@H]1C(=O)N[C@@H](C)C(=O)N[C@H](C(=O)NCC#N)Cc2ccc(OCCN)c(c2)-c2cc1ccc2OCCN [Compound 334] | – | < 0.063 µg/mL | – | 1.3 nM | < 0.063 µg/mL | 0.5 µg/mL (≈ 0.571 µM)
CCCCCCCCc1ccc(C(=O)N[C@@H](CCCN)C(=O)N(C)[C@@H]2C(=O)N[C@@H](C)C(=O)N[C@H](C(=O)NCC#N)Cc3ccc(OCCN)c(c3)-c3cc2ccc3OCCN)cc1 [Compound 335] | – | 0.016 µg/mL (≈ 0.0184 µM) | – | 0.56 nM | 0.031 µg/mL (≈ 0.0357 µM) | 0.25 µg/mL (≈ 0.288 µM)
CCCCCCCCCCCCCC(=O)N[C@@H](CCCN)C(=O)N(C)[C@@H]1C(=O)N[C@@H](C)C(=O)N[C@H](C(=O)NCC#N)Cc2ccc(OCCN)c(c2)-c2cc1ccc2OCCN [Compound 336] | – | 0.023 µg/mL (≈ 0.0267 µM) | – | < 0.5 nM | 0.063 µg/mL (≈ 0.0731 µM) | 0.25 µg/mL (≈ 0.29 µM)
CCCCCCCCCCCCCC(=O)N[C@@H](CCN)C(=O)N(C)[C@@H]1C(=O)N[C@@H](C)C(=O)N[C@H](C(=O)NCC#N)Cc2ccc(OCCN)c(c2)-c2cc1ccc2OCCN [Compound 337] | – | 0.016 µg/mL (≈ 0.0189 µM) | – | < 0.5 nM | 0.031 µg/mL (≈ 0.0366 µM) | 0.25 µg/mL (≈ 0.295 µM)
CCCCc1ccc(-c2ccc(C(=O)N[C@@H](CCN)C(=O)N(C)[C@@H]3C(=O)N[C@@H](C)C(=O)N[C@H](C(=O)NCC#N)Cc4ccc(OCCN)c(c4)-c4cc3ccc4OCCN)cc2)cc1 [Compound 338] | 0.063 µg/mL (≈ 0.0721 µM) | 0.023 µg/mL (≈ 0.0263 µM) | 0.19 µg/mL (≈ 0.217 µM) | < 0.5 nM | – | –
CCCCCCCCc1ccc(C(=O)N[C@@H](CCN)C(=O)N(C)[C@@H]2C(=O)N[C@@H](C)C(=O)N[C@H](C(=O)NCC#N)Cc3ccc(OCCN)c(c3)-c3cc2ccc3OCCN)c(C)c1 [Compound 339] | – | 0.018 µg/mL (≈ 0.0207 µM) | – | < 0.5 nM | 0.047 µg/mL (≈ 0.0541 µM) | 0.13 µg/mL (≈ 0.15 µM)
CCCCc1ccc(-c2ccc(C(=O)N[C@@H](CN)C(=O)N(C)[C@@H]3C(=O)N[C@@H](C)C(=O)N[C@H](C(=O)NCC#N)Cc4ccc(OCCN)c(c4)-c4cc3ccc4OCCN)cc2)cc1 [Compound 341] | – | 0.031 µg/mL (≈ 0.036 µM) | – | 1.1 nM | 0.13 µg/mL (≈ 0.151 µM) | 0.5 µg/mL (≈ 0.581 µM)
CCCCCCCCCCCCCC(=O)N[C@@H](CN)C(=O)N(C)[C@@H]1C(=O)N[C@@H](C)C(=O)N[C@H](C(=O)N[C@@H](C)C#N)Cc2ccc(OCCN)c(c2)-c2cc1ccc2OCCN [Compound 342] | – | 0.063 µg/mL (≈ 0.0743 µM) | – | 1.3 nM | 0.19 µg/mL (≈ 0.224 µM) | 0.5 µg/mL (≈ 0.59 µM)
CCCCCCCCCCCCCC(=O)N[C@@H](CN)C(=O)N(C)[C@@H]1C(=O)N[C@@H](C)C(=O)N[C@H](C(=O)NCC#N)Cc2ccc(OCCN)c(c2)-c2cc1ccc2OCCN [Compound 343] | – | 0.063 µg/mL (≈ 0.0755 µM) | – | 0.73 nM | 0.094 µg/mL (≈ 0.113 µM) | 0.25 µg/mL (≈ 0.3 µM)
CCCCCCCCc1ccc(C(=O)N[C@@H](CN)C(=O)N(C)[C@@H]2C(=O)N[C@@H](C)C(=O)N[C@H](C(=O)NCC#N)Cc3ccc(OCCN)c(c3)-c3cc2ccc3OCCN)cc1 [Compound 344] | – | 0.036 µg/mL (≈ 0.0429 µM) | – | 1 nM | 0.094 µg/mL (≈ 0.112 µM) | 0.38 µg/mL (≈ 0.452 µM)
CCCCCCCCS(=O)(=O)N[C@@H](CO)C(=O)N(C)[C@@H]1C(=O)N[C@@H](C)C(=O)N[C@H](C(=O)NCC#N)Cc2ccc(OCCN)c(c2)-c2cc1ccc2OCCN [Compound 345] | 0.5 µg/mL (≈ 0.624 µM) | 2 µg/mL (≈ 2.5 µM) | > 64 µg/mL | 2.2 nM | – | –
CCCCCCCCCCS(=O)(=O)N[C@@H](CCN)C(=O)N(C)[C@@H]1C(=O)N[C@@H](C)C(=O)N[C@H](C(=O)NCC#N)Cc2ccc(OCCN)c(c2)-c2cc1ccc2OCCN [Compound 346] | – | 0.063 µg/mL (≈ 0.0748 µM) | – | 0.7 nM | 0.031 µg/mL (≈ 0.0368 µM) | 8 µg/mL (≈ 9.5 µM)
CCCCCCCCCCNCCS(=O)(=O)N[C@@H](CCO)C(=O)N(C)[C@@H]1C(=O)N[C@@H](C)C(=O)N[C@H](C(=O)NCC#N)Cc2ccc(OCCN)c(c2)-c2cc1ccc2OCCN [Compound 348] | 0.055 µg/mL (≈ 0.0621 µM) | 1 µg/mL (≈ 1.13 µM) | > 64 µg/mL | 0.8 nM | – | –
